pIC50: −log10 of the molar value.

The subject of one data set is PC-3. The data set can be described thus: Cytotoxicity against human PC3 cells after 72 hrs by MTT assay. The data set is classed as functional, cell-based.
A further data set concerns Jurkat. Kind of data set: Cytotoxicity against human Jurkat cells after 72 hrs by XTT assay. The data set is classed as functional, cell-based. On the technique in general: Tetrazolium dyes change colour on reduction, which living cells bring about.
Another data set concerns HeLa. Kind of data set: Cytotoxicity against human HeLa cells after 72 hrs by MTT assay. It counts as functional, cell-based.
A further data set deals with A-375. Kind of data set: Cytotoxicity against human A375 cells after 72 hrs by MTT assay. The data set is classed as functional, cell-based. The settings on record: for pIC50: A-375, 72 h.
The test system of a further data set is HT-29. Kind of data set: Cytotoxicity against human HT-29 cells after 72 hrs by MTT assay. It counts as functional, cell-based. The following applies: HT-29, 72 h.
The test system of the next data set is MCF7. The data set can be described thus: Cytotoxicity against human MCF7 cells after 72 hrs by MTT assay. The following applies: for pIC50: MCF7, 72 h. The data set is classed as functional, cell-based.
The test system of a further data set is BJ. Kind of data set: Cytotoxicity against human BJ cells after 72 hrs by MTT assay. It counts as cell-based. The following applies: for Activity: human, bj.
In another data set the test system is MIA PaCa-2. The data set can be described thus: (§1) Cytotoxicity against human MIAPaCa2 cells after 72 hrs by MTT assay. It counts as functional, cell-based.
Data set [1] is described as follows: as §1. It counts as functional, cell-based. The following applies: MIA PaCa-2, 72 h.

`C[C@H]1[C@H](C)CC[C@@]23CC[C@]4(C)[C@](OC2=O)([C@H](F)C[C@@H]2[C@@]5(C)C[C@@H](O)[C@H](O)[C@@](C)(CO)[C@@H]5CC[C@]24C)[C@H]13`: the Activity result in the data set on PC-3, in the data set with Jurkat, with A-375, in the data set on MCF7, with BJ and in the data set with MIA PaCa-2 was “Dose-dependent effect” each time. In addition, the figures for the pIC50 with HeLa and in the data set on HT-29 were 4.22 and 4.29, respectively.
In the case of `Cc1nccn1C(=O)OC[C@]1(C)C=C(C=O)[C@@]2(C)[C@H]1CC[C@]1(C)[C@@H]2C[C@@H](F)[C@]23OC(=O)[C@@]4(CC[C@@H](C)[C@H](C)[C@H]42)CC[C@]31C`, the Activity result with PC-3, with Jurkat, in the data set with A-375, in the data set with MCF7, with BJ and with MIA PaCa-2 was “Dose-dependent effect” throughout. Further, the pIC50 in the data set with HeLa was 5.79; in the data set with HT-29, 5.55.
On to `COC(=O)CN1C(=O)[C@]23CC[C@@H](C)[C@H](C)[C@H]2[C@]12[C@H](F)C[C@@H]1[C@@]4(C)C[C@@H](OC(C)=O)[C@H](OC(C)=O)[C@@](C)(COC(C)=O)[C@@H]4CC[C@@]1(C)[C@]2(C)CC3`, for which the Activity result in the data set with PC-3, with Jurkat, in the data set on A-375, in the data set on MCF7, in the data set on BJ and with MIA PaCa-2 was “Dose-dependent effect” each time. Besides, the pIC50 was 5.57 with HeLa and 5.03 with HT-29.
As to `CC(=O)OC[C@@]1(C)[C@@H]2CC[C@]3(C)[C@H](C[C@@H](F)[C@]45NC(=O)[C@@]6(CC[C@@H](C)[C@H](C)[C@H]64)CC[C@]53C)[C@@]2(C)C[C@@H](OC(C)=O)[C@@H]1OC(C)=O`, the Activity result with PC-3, in the data set on Jurkat, in the data set with A-375, in the data set with MCF7, in the data set with BJ and with MIA PaCa-2 was “Dose-dependent effect” throughout. The pIC50 in the data set on HeLa was 5.63; in the data set on HT-29, 5.12.
Take `C[C@H]1[C@H](C)CC[C@@]23CC[C@]4(C)[C@](OC2=O)([C@H](F)C[C@@H]2[C@@]5(C)C(C=O)=C[C@@](C)(COC(=O)CCC(=O)O)[C@@H]5CC[C@]24C)[C@H]13`: the Activity result with PC-3, in the data set with Jurkat, with A-375, in the data set with MCF7, with BJ and in the data set on MIA PaCa-2 was “Dose-dependent effect” each time. The pIC50 is 5.46 in the data set with HeLa and 5.20 in the data set with HT-29.
With `CC(=O)OC[C@]1(C)C=C(C=O)[C@@]2(C)[C@H]1CC[C@]1(C)[C@@H]2C[C@@H](F)[C@]23OC(=O)[C@@]4(CC[C@@H](C)[C@H](C)[C@H]42)CC[C@]31C`, the Activity result with PC-3, in the data set with Jurkat, with A-375, with MCF7, in the data set with BJ and with MIA PaCa-2 was “Dose-dependent effect” each time. Further, the pIC50 in the data set with HeLa is 5.85; in the data set on HT-29, 5.69.
With `C[C@H]1[C@H](C)CC[C@@]23CC[C@]4(C)[C@](OC2=O)([C@H](F)C[C@@H]2[C@@]5(C)C(C=O)=C[C@@](C)(COC(=O)c6ccccc6)[C@@H]5CC[C@]24C)[C@H]13`, the Activity entry in the data set on PC-3, with Jurkat, with A-375, with MCF7 and with MIA PaCa-2 was “Dose-dependent effect” in each case. Also, the pIC50 is 6.10 in the data set with HeLa; 6.02 in the data set with A-375; 5.98 in the data set with HT-29; 6.06 in the data set on MCF7; 5.65 in the data set on BJ (Homo sapiens, BJ); 5.88 in data set [1].
Consider `CCCC(=O)OC[C@@]1(C)[C@@H]2CC[C@]3(C)[C@H](C[C@@H](F)[C@]45OC(=O)[C@@]6(CC[C@@H](C)[C@H](C)[C@H]64)CC[C@]53C)[C@@]2(C)C[C@@H](OC(=O)CCC)[C@@H]1OC(=O)CCC`, for which the Activity entry in the data set with PC-3, in the data set on Jurkat, in the data set with A-375, with MCF7, in the data set with BJ and in the data set with MIA PaCa-2 was “Dose-dependent effect” in each case. Also, the pIC50 with HeLa was 5.30; with HT-29, 5.13.
Take `CCCC(=O)OC[C@]1(C)C=C(C=O)[C@@]2(C)[C@H]1CC[C@]1(C)[C@@H]2C[C@@H](F)[C@]23OC(=O)[C@@]4(CC[C@@H](C)[C@H](C)[C@H]42)CC[C@]31C`: the Activity result in the data set on PC-3, in the data set on Jurkat, with A-375, with MCF7 and in the data set with MIA PaCa-2 was “Dose-dependent effect” in each case. The pIC50 with HeLa is 6.02; in the data set with A-375, 5.99; with HT-29 it was 5.89; in the data set with MCF7, 5.85; in data set [1], 5.83.
As to `CC(=O)OC[C@@]1(C)[C@@H]2CC[C@]3(C)[C@H](C[C@@H](F)[C@]45[C@@H]6[C@@H](C)[C@H](C)CC[C@@]6(CC[C@]43C)C(=O)N5C)[C@@]2(C)C[C@@H](OC(C)=O)[C@@H]1OC(C)=O`, the Activity entry in the data set with PC-3, in the data set on Jurkat, in the data set on A-375, in the data set with MCF7, in the data set on BJ and with MIA PaCa-2 was “Dose-dependent effect” throughout. Also, the pIC50 in the data set with HeLa was 5.53; with HT-29, 5.07.
Take `C[C@H]1[C@H](C)CC[C@@]23CC[C@]4(C)[C@](OC2=O)([C@H](F)C[C@@H]2[C@@]5(C)C(C=O)=C[C@@](C)(CO)[C@@H]5CC[C@]24C)[C@H]13`: the Activity result with PC-3, with Jurkat, in the data set with A-375, in the data set with MCF7, in the data set with BJ and in the data set with MIA PaCa-2 was “Dose-dependent effect” in each case. Further, the pIC50 in the data set on HeLa was 5.97; in the data set on HT-29, 5.89.

What is called pIC50 is the negative decadic logarithm of the IC50, by convention in mol/L. A high value points to a small IC50.
